# Measured values: patent US12251388B1, “Methods of treating ischemic stroke at risk for cerebral or cerebellar edema” (REMEDY PHARMACEUTICALS, INC., priority 2024, dated 2025)
# System: large hemispheric infarction (LHI) patients at high risk for cerebral edema
# Test: CHARM trial: mRS score at 90 days, shift analysis on 5-category ordinal scale (0/1 and 5/6 collapsed), intravenous glibenclamide versus placebo
# Assay type: in vivo, human
# Details: for Common Odds Ratio: mITT population (aged ≤70 years), drug vs placebo
# From the text: The CHARM trial evaluated the safety and efficacy of intravenous glibenclamide as a treatment for large hemispheric infarction (LHI) patients at high risk for cerebral edema.
# Patients meeting the following criteria were included: • A clinical diagnosis of acute ischemic stroke in the middle cerebral artery (MCA) territory. • A large hemispheric infarction defined as; lesion volume of 80 to 300 centimeters cubed (cm^3) on magnetic resonance imaging (MRI) diffusion-weighted imaging (DWI), or computed tomography perfusion (CTP), or an Alberta Stroke Program Early CT Score (ASPECTS) of 1 to 5 with involvement of at least 2 defined cortical regions. • Screening National Institutes of Health Stroke Scale (NIHSS)>=10. • At the time of randomization, and in the Investigator's judgement, it must be feasible for study drug treatment infusion to be initiated no later than 10 hours after time of symptom onset, if known, or the time last known normal. • Participants who wake with stroke may be included if neurological and other exclusion criteria are satisfied. The time of stroke onset is to be taken as the midpoint between sleep onset (or last known to be normal) and time of waking.
# Patients meeting the following criteria were excluded: • Participant is likely to have supportive care withdrawn on the first day. • Commitment to decompressive craniectomy (DC) prior to enrollment. • Evidence of concurrent infarction in the contralateral hemisphere sufficiently serious so as to affect functional outcome. Pre-Specified Primary Endpoint
# Modified Rankin Scale (mRS) score at 90 days analyzed as a shift analysis using a 5-category ordinal scale with 0/1 and 5/6 collapsed. The primary efficacy analysis was pre-specified to be conducted in participants 18-70 years of age (inclusive) who were randomized and receive study treatment (the modified intent-to-treat [mITT] population].
# Five hundred thirty-five subjects were enrolled, with 268 treated with placebo and 267 treated with intravenous glyburide. The mITT population (the primary analysis population), those participants aged≤70 years who received any study drug, consisted of 431 subjects.
# An analysis was conducted in the mITT population to examine effects of limits on the NIHSS. […] A common odds ratio of greater than 1 indicates a positive drug effect and in the group having an NIHSS of ≤20, the common odds ratio exceeded 1.7, indicating a robust effect in favor of the drug.
# [1] = mRS scores 5 and 6 combined, baseline NIHSS ≥10 and ≤20
compound,measurement,setting,value
"COc1ccc(Cl)cc1C(=O)NCCc1ccc(S(=O)(=O)NC(=O)NC2CCCCC2)cc1 [intravenous glyburide, glyburide]",Common Odds Ratio,"NIHSS cutoff ≤18, mRS at 90 days, n=197",2.027
same,Common Odds Ratio,"NIHSS cutoff ≤19, mRS at 90 days, n=232",1.846
same,Common Odds Ratio,"NIHSS cutoff ≤21, mRS at 90 days, n=303",1.260
same,Common Odds Ratio,"NIHSS cutoff ≤22, mRS at 90 days, n=328",1.144
same,Common Odds Ratio,"NIHSS cutoff ≤23, mRS at 90 days, n=352",1.142
same,"lesion volume at the ""no effect"" level of the treatment effect (mRS)",[1],approximately 140 cm^3
same,lesion volume at which a robust treatment effect (mRS) is seen,[1],≤ 125 cm^3
